From patent US9718821B2, “Pyridopyrimidinone inhibitors of kinases” (AbbVie Inc., priority 2012, dated 2017)

Target: T1, GST-tagged-Wee1 kinase (Homo sapiens, UniProt P30291)
T1 construct: purchased Carnabio 05-177
Assay: Wee1 time-resolved fluorescence equilibrium binding assay (displacement of Oregon Green-labeled ATP-competitive kinase probe)
Conditions: enzyme binding data; GST-tagged-Wee1 kinase 2 nM, fluorescent probe 300 nM, inhibitor 0.003 to 10 micromolar, 1 hour incubation; read-out: Wee-1 binding (Ki nM)
Method: Wee1 kinase was assayed using a time-resolved fluorescence equilibrium binding assay monitoring displacement of a rapidly reversible Oregon Green-labeled ATP-competitive kinase probe (N-(2-(2-(2-(4-(4-(5-chloro-4-(2-(1-hydroxycyclobutyl)thiazol-5-yl)-1H-pyrrolo[2,3-b]pyridin-2-yl)phenyl)piperazin-1-yl)ethoxy)ethoxy)ethyl)-2′,7′-difluoro-3′,6′-dihydroxy-3-oxo-3H-spiro[isobenzofuran-1,9′-xanthene]-5-carboxamide) by competitive Wee1 inhibitors.
Table 1 depicts enzyme binding data (Ki)for exemplary compounds.

T1 sequence (P30291 whole entry): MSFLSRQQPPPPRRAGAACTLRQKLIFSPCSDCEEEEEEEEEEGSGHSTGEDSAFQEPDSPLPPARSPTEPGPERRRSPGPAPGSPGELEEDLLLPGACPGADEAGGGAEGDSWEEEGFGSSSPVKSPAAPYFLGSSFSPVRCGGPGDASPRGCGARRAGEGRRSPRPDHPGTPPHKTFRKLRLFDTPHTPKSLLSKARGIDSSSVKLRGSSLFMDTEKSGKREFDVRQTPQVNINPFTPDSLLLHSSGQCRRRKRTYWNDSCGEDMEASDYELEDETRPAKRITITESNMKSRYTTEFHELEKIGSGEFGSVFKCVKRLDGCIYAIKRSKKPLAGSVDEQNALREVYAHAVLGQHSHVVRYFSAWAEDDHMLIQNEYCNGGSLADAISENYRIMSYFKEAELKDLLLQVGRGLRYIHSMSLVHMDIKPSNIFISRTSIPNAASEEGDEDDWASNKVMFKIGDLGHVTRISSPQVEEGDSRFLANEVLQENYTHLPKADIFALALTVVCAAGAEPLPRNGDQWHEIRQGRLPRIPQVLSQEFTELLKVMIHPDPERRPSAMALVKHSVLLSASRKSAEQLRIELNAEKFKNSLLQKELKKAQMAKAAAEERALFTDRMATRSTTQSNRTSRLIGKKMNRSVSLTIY

Question: For Cc1cn(-c2cc(Cl)ccc2Cl)c(=O)c2cnc(Nc3ccc4c(c3)CNCC4)nc12 [Example 102, 6-(2,5-dichlorophenyl)-8-methyl-2-(1,2,3,4-tetrahydroisoquinolin-7-ylamino)pyrido[4,3-d]pyrimidin-5(6H)-one], which Ki is on record?
Answer: 17.8 nM

Question: With Cc1cccc(F)c1-n1cc(C)c2nc(Nc3ccc4c(c3)CNCC4)ncc2c1=O [Example 103, 6-(2-fluoro-6-methylphenyl)-8-methyl-2-(1,2,3,4-tetrahydroisoquinolin-7-ylamino)pyrido[4,3-d]pyrimidin-5(6H)-one] as the molecule, how does the Ki read?
Answer: 0.9 nM

Question: With Cc1cccc(F)c1-n1cc(C)c2nc(Nc3ccc(N4CCC(N(C)C)CC4)cc3)ncc2c1=O [Example 104, 2-({4-[4-(dimethylamino)piperidin-1-yl]phenyl}amino)-6-(2-fluoro-6-methylphenyl)-8-methylpyrido[4,3-d]pyrimidin-5(6H)-one] as the molecule, how does the Ki read?
Answer: 0.9 nM

Question: For Cc1cn(-c2ccccc2-c2cnco2)c(=O)c2cnc(Nc3ccc4c(c3)CNCC4)nc12 [Example 105, 8-methyl-6-[2-(1,3-oxazol-5-yl)phenyl]-2-(1,2,3,4-tetrahydroisoquinolin-7-ylamino)pyrido[4,3-d]pyrimidin-5(6H)-one], which Ki is on record?
Answer: 122 nM

Question: For Cc1cn(-c2ccccc2-c2cnco2)c(=O)c2cnc(Nc3ccc(N4CCC(N(C)C)CC4)cc3)nc12 [Example 106, 2-({4-[4-(dimethylamino)piperidin-1-yl]phenyl}amino)-8-methyl-6-[2-(1,3-oxazol-5-yl)phenyl]pyrido[4,3-d]pyrimidin-5(6H)-one], which Ki is on record?
Answer: 115 nM

Question: COC(=O)c1ccc(Cl)c(-n2cc(C)c3nc(Nc4ccc5c(c4)CNCC5)ncc3c2=O)c1 [Example 107, methyl 4-chloro-3-[8-methyl-5-oxo-2-(1,2,3,4-tetrahydroisoquinolin-7-ylamino)pyrido[4,3-d]pyrimidin-6(5H)-yl]benzoate] was tested. Which Ki did it give?
Answer: 321 nM

Question: Which Ki does the source give for COC(=O)c1ccc(Cl)c(-n2cc(C)c3nc(Nc4ccc(N5CCC(N(C)C)CC5)cc4)ncc3c2=O)c1 [Example 108, methyl 4-chloro-3-[2-({4-[4-(dimethylamino)piperidin-1-yl]phenyl}amino)-8-methyl-5-oxopyrido[4,3-d]pyrimidin-6(5H)-yl]benzoate] here?
Answer: 242 nM

Question: How did the Ki turn out when O=c1c2cnc(Nc3ccc4c(c3)CNCC4)nc2c(CF)cn1-c1c(Cl)cccc1Cl [Example 109, 6-(2,6-dichlorophenyl)-8-(fluoromethyl)-2-(1,2,3,4-tetrahydroisoquinolin-7-ylamino)pyrido[4,3-d]pyrimidin-5(6H)-one] was run?
Answer: 0.3 nM

Question: O=c1c2cnc(Nc3ccc4c(c3)CCNC4)nc2c(CF)cn1-c1c(Cl)cccc1Cl [Example 110, 6-(2,6-dichlorophenyl)-8-(fluoromethyl)-2-(1,2,3,4-tetrahydroisoquinolin-6-ylamino)pyrido[4,3-d]pyrimidin-5(6H)-one] was tested. Which Ki did it give?
Answer: 0.4 nM

Question: CN(C)C1CCN(c2ccc(Nc3ncc4c(=O)n(-c5c(Cl)cccc5Cl)cc(CF)c4n3)cc2)CC1 [Example 111, 6-(2,6-dichlorophenyl)-2-({4-[4-(dimethylamino)piperidin-1-yl]phenyl}amino)-8-(fluoromethyl)pyrido[4,3-d]pyrimidin-5(6H)-one] was tested. Which Ki did it give?
Answer: 0.2 nM

Question: For CN(C)C1Cc2ccc(Nc3ncc4c(=O)n(-c5c(Cl)cccc5Cl)cc(CF)c4n3)cc2C1 (stereo not shown) [Example 112, 6-(2,6-dichlorophenyl)-2-{[2-(dimethylamino)-2,3-dihydro-1H-inden-5-yl]amino}-8-(fluoromethyl)pyrido[4,3-d]pyrimidin-5(6H)-one], which Ki is on record?
Answer: 0.4 nM

Question: Which Ki does the source give for CN1Cc2cc(Nc3ncc4c(=O)n(-c5c(Cl)cccc5Cl)cc(CF)c4n3)ccc2C2(CC2)C1 [Example 113, 6-(2,6-dichlorophenyl)-8-(fluoromethyl)-2-[(2′-methyl-2′,3′-dihydro-1′H-spiro[cyclopropane-1,4′-isoquinolin]-7′-yl)amino]pyrido[4,3-d]pyrimidin-5 (6H)-one] here?
Answer: 0.4 nM

Question: How did the Ki turn out when CNC(=O)CSc1ccc(Nc2ncc3c(=O)n(-c4c(Cl)cccc4Cl)cc(C)c3n2)cc1 [Example 114, 2-[(4-{[6-(2,6-dichlorophenyl)-8-methyl-5-oxo-5,6-dihydropyrido[4,3-d]pyrimidin-2-yl]amino}phenyl)sulfanyl]-N-methylacetamide] was run?
Answer: 0.8 nM

Question: Which Ki does the source give for Cc1cn(-c2c(Cl)cccc2Cl)c(=O)c2cnc(Nc3ccc4c(c3)CN(C)C4(C)C)nc12 [Example 115, 6-(2,6-dichlorophenyl)-8-methyl-2-[(1,1,2-trimethyl-2,3-dihydro-1H-isoindol-5-yl)amino]pyrido[4,3-d]pyrimidin-5(6H)-one] here?
Answer: 0.2 nM

Question: Cc1cn(-c2c(Cl)cccc2Cl)c(=O)c2cnc(Nc3ccc(NC4CCN(C)CC4)cc3)nc12 [Example 116, 6-(2,6-dichlorophenyl)-8-methyl-2-({4-[(1-methylpiperidin-4-yl)amino]phenyl}amino)pyrido[4,3-d]pyrimidin-5 (6H)-one] was tested. Which Ki did it give?
Answer: 0.1 nM

Question: With Cc1cn(-c2ccccc2O)c(=O)c2cnc(Nc3ccc4c(c3)CNCC4)nc12 [Example 117, 6-(2-hydroxyphenyl)-8-methyl-2-(1,2,3,4-tetrahydroisoquinolin-7-ylamino)pyrido[4,3-d]pyrimidin-5(6H)-one] as the molecule, how does the Ki read?
Answer: 2 nM

Question: Which Ki does the source give for Cc1cccc(O)c1-n1cc(C)c2nc(Nc3ccc4c(c3)CNCC4)ncc2c1=O [Example 118, 6-(2-hydroxy-6-methylphenyl)-8-methyl-2-(1,2,3,4-tetrahydroisoquinolin-7-ylamino)pyrido[4,3-d]pyrimidin-5(6H)-one] here?
Answer: 0.6 nM

Question: Which Ki does the source give for Cc1nn(C)c(C)c1-n1cc(C)c2nc(Nc3ccc4c(c3)CNCC4)ncc2c1=O [Example 119, 8-methyl-2-(1,2,3,4-tetrahydroisoquinolin-7-ylamino)-6-(1,3,5-trimethyl-1H-pyrazol-4-yl)pyrido[4,3-d]pyrimidin-5(6H)-one] here?
Answer: 1.6 nM

Question: With CNC(=O)CS(=O)(=O)c1ccc(Nc2ncc3c(=O)n(-c4c(Cl)cccc4Cl)cc(C)c3n2)cc1 [Example 120, 2-[(4-{[6-(2,6-dichlorophenyl)-8-methyl-5-oxo-5,6-dihydropyrido[4,3-d]pyrimidin-2-yl]amino}phenyl)sulfonyl]-N-methylacetamide] as the molecule, how does the Ki read?
Answer: 0.3 nM

Question: Which Ki does the source give for Cc1cn(-c2c(Cl)cccc2Cl)c(=O)c2cnc(Nc3ccc4c(c3)CNC4(C)C)nc12 [Example 121, 6-(2,6-dichlorophenyl)-2-[(1,1-dimethyl-2,3-dihydro-1H-isoindol-5-yl)amino]-8-methylpyrido[4,3-d]pyrimidin-5(6H)-one] here?
Answer: 0.1 nM

Question: Cc1cn(-c2c(Cl)cccc2Cl)c(=O)c2cnc(Nc3ccc(OC4CCN(C)CC4)cc3)nc12 [Example 122, 6-(2,6-dichlorophenyl)-8-methyl-2-({4-[(1-methylpiperidin-4-yl)oxy]phenyl}amino)pyrido[4,3-d]pyrimidin-5(6H)-one] was tested. Which Ki did it give?
Answer: 0.4 nM

Question: Which Ki does the source give for Cc1n[nH]c(C)c1-n1cc(C)c2nc(Nc3ccc4c(c3)CNCC4)ncc2c1=O [Example 123, 6-(3,5-dimethyl-1H-pyrazol-4-yl)-8-methyl-2-(1,2,3,4-tetrahydroisoquinolin-7-ylamino)pyrido[4,3-d]pyrimidin-5(6H)-one] here?
Answer: 1.3 nM

Question: With Cc1noc(C)c1-n1cc(C)c2nc(Nc3ccc4c(c3)CNCC4)ncc2c1=O [Example 124, 6-(3,5-dimethyl-1,2-oxazol-4-yl)-8-methyl-2-(1,2,3,4-tetrahydroisoquinolin-7-ylamino)pyrido[4,3-d]pyrimidin-5(6H)-one] as the molecule, how does the Ki read?
Answer: 1.6 nM

Question: How did the Ki turn out when Cc1cn(-c2c(Cl)cccc2Cl)c(=O)c2cnc(Nc3ccc(NC4CCN(C)C4)cc3)nc12 (stereo not shown) [Example 125, 6-(2,6-dichlorophenyl)-8-methyl-2-({4[(1-methylpyrrolidin-3-yl)amino]phenyl}amino)pyrido[4,3-d]pyrimidin-5(6H)-one] was run?
Answer: 0.3 nM

Question: How did the Ki turn out when Cc1cccc(C)c1-n1cc(C)c2nc(Nc3ccc4c(c3)CNCC4)ncc2c1=O [Example 126, 6-(2,6-dimethylphenyl)-8-methyl-2-(1,2,3,4-tetrahydroisoquinolin-7-ylamino)pyrido[4,3-d]pyrimidin-5(6H)-one] was run?
Answer: 0.4 nM

Question: How did the Ki turn out when Cc1cccc(Cl)c1-n1cc(C)c2nc(Nc3ccc4c(c3)CNCC4)ncc2c1=O [Example 127, 6-(2-chloro-6-methylphenyl)-8-methyl-2-(1,2,3,4-tetrahydroisoquinolin-7-ylamino)pyrido[4,3-d]pyrimidin-5(6H)-one] was run?
Answer: 0.3 nM

Question: With CC(O)c1cn(-c2c(Cl)cccc2Cl)c(=O)c2cnc(Nc3ccc(N4CCN(C)CC4)cc3)nc12 (stereo not shown) [Example 128, 6-(2,6-dichlorophenyl)-8-(1-hydroxyethyl)-2-{[4-(4-methylpiperazin-1-yl)phenyl]amino}pyrido[4,3-d]pyrimidin-5(6H)-one] as the molecule, how does the Ki read?
Answer: 2 nM

Question: Which Ki does the source give for COC(=O)c1cc(Nc2ncc3c(=O)n(-c4c(Cl)cccc4Cl)cc(C)c3n2)ccc1N1CCN(C)CC1 [Example 129, methyl 5-{[6-(2,6-dichlorophenyl)-8-methyl-5-oxo-5,6-dihydropyrido[4,3-d]pyrimidin-2-yl]amino}-2-(4-methylpiperazin-1-yl)benzoate] here?
Answer: 0.2 nM

Question: With Cc1cn(-c2c(Cl)cccc2Cl)c(=O)c2cnc(Nc3ccc(NCCN(C)C)cc3)nc12 [Example 130, 6-(2,6-dichlorophenyl)-2-[(4-{[2-(dimethylamino)ethyl]amino}phenyl)amino]-8-methylpyrido[4,3-d]pyrimidin-5(6H)-one] as the molecule, how does the Ki read?
Answer: 0.3 nM

Question: How did the Ki turn out when Cc1cn(-c2c(Cl)cccc2Cl)c(=O)c2cnc(Nc3ccc(N4CCN(CCCN(C)C)CC4)cc3)nc12 [Example 131, 6-(2,6-dichlorophenyl)-2-[(4-{4-[3-(dimethylamino)propyl]piperazin-1-yl}phenyl)amino]-8-methylpyrido[4,3-d]pyrimidin-5(6H)-one] was run?
Answer: 0.2 nM

Question: With Cc1cn(-c2c(Cl)cccc2Cl)c(=O)c2cnc(Nc3ccc(N[C@H]4CC[C@H](N(C)C)CC4)cc3)nc12 [Example 132, 6-(2,6-dichlorophenyl)-2-[(4-{[trans-4-(dimethylamino)cyclohexyl]amino}phenyl)amino]-8-methylpyrido[4,3-d]pyrimidin-5(6H)-one] as the molecule, how does the Ki read?
Answer: 0.4 nM
